According to patent US20250312469A1 (CANGET BIOTEKPHARMA, priority 2024, published 2025):

What was measured:
USP2a = molecular target: T1, USP2a (Homo sapiens, UniProt O75604); assay: ProtoArray protein microarray probed with 3H-FL118; format: binding; design: purchased Invitrogen ProtoArray Human Protein Microarray v5.0; conditions: 3H-FL118 0.5 μM
T1 sequence (O75604 1-605): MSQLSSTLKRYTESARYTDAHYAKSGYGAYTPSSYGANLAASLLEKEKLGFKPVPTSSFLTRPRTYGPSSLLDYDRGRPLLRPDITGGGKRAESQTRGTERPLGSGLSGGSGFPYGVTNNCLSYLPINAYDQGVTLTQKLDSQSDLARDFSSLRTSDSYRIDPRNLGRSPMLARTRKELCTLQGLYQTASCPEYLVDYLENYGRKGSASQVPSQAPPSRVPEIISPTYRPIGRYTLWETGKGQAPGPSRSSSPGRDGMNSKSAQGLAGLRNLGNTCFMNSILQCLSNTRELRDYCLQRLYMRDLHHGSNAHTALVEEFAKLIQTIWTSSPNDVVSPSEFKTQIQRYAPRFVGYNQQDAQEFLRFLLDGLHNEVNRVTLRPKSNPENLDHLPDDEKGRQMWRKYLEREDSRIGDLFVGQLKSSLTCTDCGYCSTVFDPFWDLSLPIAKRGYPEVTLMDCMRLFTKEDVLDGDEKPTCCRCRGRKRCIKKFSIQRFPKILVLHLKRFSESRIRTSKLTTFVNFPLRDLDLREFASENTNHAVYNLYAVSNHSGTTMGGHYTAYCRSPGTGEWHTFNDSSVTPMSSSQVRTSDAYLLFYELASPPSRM
Method: (§1) The flask was then immersed in silicone oil bath at 180° C.-190° C. for 6 hours. The tritium gas was removed. The reaction mixture was dissolved in 1 mL of DMSO and back-exchanged 10× with 50% ethanol. Injected directly to CapCeLL PAK C-18 column (4.6×250 mm), mobile phase 30% CH3CN, 0.1% TFA, flow 1 mL/min, U.V. =200 nm, r.t. =40 min. After purification, total activity was 5 mCi (solid) with a specificity of 5.6 Ci/mmol at a radiochemical purity of >97% for ^3H-FL118. […] The flask was then immersed in silicone oil bath at 190° C. for 24 h. The tritium gas was removed. The reaction mixture was dissolved in 1 mL of DMSO and back-exchanged 10× with 50% ethanol and injected directly to CapCeLL Pak C-18 column (4.6×250 mm), mobile phase 30% CH3CN, 0.1% TFA, […], U.V. =200 nm, r.t. =40 min. After purification total activity was 5 mCi (solid) with a specificity of 16.5 Ci/mmol at a radiochemical purity of ≥81% for ^3H-FL118.
(§2) Use of ^3H-FL118 as a radioactive probe to search FL118-binding proteins through screening of human protein microarray (ProtoArray R with 9,400 human proteins, Invitrogen): The study process includes the following steps.
(§3) 1. Blocking the ProtoArray: (i) Immediately place the mailer containing the Human Protein Microarray v5.0 at 4° C. upon removal from storage at −20° C. and equilibrate the mailer at 4° C. for at least 15 minutes prior to use. (ii) Place Human Protein Microarrays with the barcode facing up in the bottom of a 4-chamber incubation tray such that the barcode end of the microarray is near the tray end containing an indented numeral. […] Avoid pipetting buffer directly onto the array surface. (iv) Incubate the tray for 1 hour at 4° C. on a shaker set at 50 rpm (circular shaking). (v) After incubation, remove Protein Microarrays from FL118 Assay Buffer. To remove array from the 4-chamber incubation tray, insert the tip of forceps into the indented numeral end and gently pry the array upward. Using a gloved hand, pick up the microarray by holding the array by its edges only. Tap to remove excess liquid from slide surface. (vi) Proceed immediately to Probing the Array.
(§4) 2. Probing the ProtoArray: (i) Place each ProtoArray horizontally in a separate sterile 50 mL conical tube with about ⅓ of the array extended outside of the tube. The barcoded end of the array should protrude from the tube (face up). (ii) For each ProtoArray, add 100 μL of probing mixture including ^3H-FL118 (final concentration of ^3H-FL118 at 0.1 μM and 0.5 μM, respectively on different ProtoArray) and the positional mapping reagent ^3H-estradiol and pipet the mixture gently onto the surface of the ProtoArray. (iii) Gently place a coverslip over the surface of the ProtoArray using forceps to avoid capturing bubbles. […]

UbE2T = molecular target: T2, UbE2T (Homo sapiens, UniProt Q9NPD8); assay: ProtoArray protein microarray probed with 3H-FL118; format: binding; design: purchased Invitrogen ProtoArray Human Protein Microarray v5.0; conditions: 3H-FL118 0.5 μM
T2 sequence (Q9NPD8 1-197): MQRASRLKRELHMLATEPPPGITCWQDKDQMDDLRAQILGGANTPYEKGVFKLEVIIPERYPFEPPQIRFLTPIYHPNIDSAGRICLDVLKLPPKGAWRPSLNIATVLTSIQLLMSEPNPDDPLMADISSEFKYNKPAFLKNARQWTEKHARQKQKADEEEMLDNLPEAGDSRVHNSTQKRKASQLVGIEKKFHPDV
Method: as §1, §2, §3, §4

CCC1(O)C(=O)OCc2c1cc1n(c2=O)Cc2cc3cc4c(cc3nc2-1)OCO4 (stereo not shown) [FL118]
Signal used (USP2a): 1959 3H counts per min | Z-Score (USP2a): 3.7 | Signal used (UbE2T): 1812 3H counts per min | Z-Score (UbE2T): 3.2
